Several values for one entry are separate records, joined by “and”; a condition that tells them apart may be missing. Identical values can stand only once. Like-named read-outs stand apart in the source and are kept apart here. Where a SMILES comes first, the peptide text is derived from it. [ ]: non-standard residue; d: D form. The star is where a group is joined. Dolaproine = CO[C@@H]([C@@H]1CCCN1)[C@@H](C)C(=O)O; Dil = CC[C@H](C)[C@H](NC)[C@@H](CC(=O)O)OC; X1 = C[C@@H](N*)[C@@H](O)c1ccccc1; NMeV = CN[C@H](C(=O)O)C(C)C
How the values were obtained:
MDA-MB-453 cells = assay: Dose-matrix combination assay (synergy score, Loewe model); assay type: cell-based
Procedure: (§1) Dose-matrix combination assays were performed as described above, but performed in opague 384-well plates (2k viable cells/well). Compounds were added using Tecan D300e liquid. Protein solutions were supplemented with 0.3% Tween-20 (final) and diluted to 1 μM. All wells were normalized to the maximum amount of DMSO (maximum 0.4%) or Tween-20 added. Read out of luminescence was performed on Envision 2104 Multilabel Reader (Perkin Elmer) and data were evaluated using Genedata Screener® version 14.0.6-Standard (Genedata AG). Luminescence values were normalized to luminescence of non-treated cells and dose-response was fitted using Smart Fit. Synergy scores were calculated using LOEWE synergy model.
(§2) The screening of synergistic drug combinations can be accomplished by performing a dose-matrix assay. Therefore, two drugs are serial diluted and mixed at every dose level, yielding a dose-matrix. The drug combination can be additive if the effects of the combination are identical to the added effects of the single agents. However, the effects of the combination might also be stronger than the activity of the single agents. This scenario is termed synergy, whereas weaker combination effects compared to the single agents are termed antagonism. A dose-matrix assay is depicted schematically in FIG. 2 which illustrates the outcomes of a dose-matrix assay: additivity, antagonism and synergy.

NCI-N87 cells = assay: as above; assay type: cell-based
Procedure: as §1, §2

HCC-1954 cells [1] = assay: as above; assay type: cell-based
Procedure: as §1, with “Read out of luminescence was performed on Envision 2104 Multilabel Reader (Perkin Elmer) and data were evaluated using Genedata Screener® version 14.0.6-Standard (Genedata AG).” left out
as §2
(§3) The screening was conducted by serial diluting the duocarmycin derivative DUBA (10) and the DDR inhibitors. […] DUBA was combined in a dose-matrix assay with hycanthone. The cell viability was measured after 6 d of treatment using the CellTiter-Glo assay kit. The signals of the cell viability assay were normalized to untreated cells and fitted. […] By subtracting the modeled data from the fitted data, an excess matrix was generated. The excess matrix can be considered as a visualization of the differences between model and actual data which also highlights spots of either high synergy or antagonism. The quantification of the combination effects, however, was performed by calculating synergy scores. […] Besides synergy score, the potency of the drugs in monotherapy was obtained from these experiments. […] The potency was obtained from this dose-response curve.
(§4) The scattering of S was determined in a sham control experiment to define a cutoff for classifying a combination as truly synergistic or antagonistic. Thus seven different compounds were combined with itself on four different cell lines and the three-σ confidence interval was calculated around the mean of the measurement. […] For the sake of convenience, the cutoff was set to a value of ±1.
(§5) Synergy scores (S) were obtained from the combination experiments that indicated additivity […] if model and actual response were equal. […] The magnitude of the score determined the extent of the combination effects.

HCC-1954 cells [2] = assay: MNED curve-shift assay; assay type: cell-based; details: for MNED (maximum non-efficacious dose): HCC-1954
Text: Therefore a curve-shift assay system was established. In a first step, a dose-response curve (DRC) is obtained by treating a certain cell line with an inhibitor. The maximum non-efficacious dose (MNED) can be derived from this DRC. MNED is the highest dose, that can be added to a certain cell line without affecting the viability. The activity of the ADC is confirmed in a separate experiment. Finally, a combination experiment can be conducted. Therefore, the ADC and ADC plus inhibitor at MNED are added to the cells. The inhibitor is tested in parallel at MNED as a control. Due to the application of inhibitor at MNED, no reduction in cell viability caused by the inhibitor is expected. Three outcomes are possible: 1) The combination of ADC plus inhibitor is equipotent as the ADC only. […] Such a result would be interpreted as depotentiation. […] In this case, the potency of the ADC is potentiated.
Potentiation effects are expressed as dose-reduction indices (DRI), which can be calculated by dividing the IC50-value of ADC by the IC50-value of ADC plus inhibitor according to eq. 1
Curve-shift assays were conducted as follows: The cell number and viability was determined using ViCell™-XR (Beckman Coulter) and seeded in opague 96-well plate (10k viable cells/well). After seeding, the plate was incubated (37° C., 5% C02) in a humid chamber overnight. Compounds were diluted in the appropriate medium, added to the cells and the plate was incubated (37° C., 5% CO2, 6 d) in a humid chamber. After 30 min equilibration at room temperature, CellTiter-Glo reagent (Promega) was added. After the plate was shaken (3 min, 550 rpm, rt) it was incubated (10 min, rt) and luminescence was read on a synergy 4 plate reader (BioTek). Evaluation was performed using GraphPad Prism version 6.05. Therefor luminescence values were normalized to luminescence values of non-treated cells and dose-response was fitted with 4-point logistic fit.
The determination of dose-reduction indices (DRI) in a maximum non-efficacious dose (MNED) curve-shift assay is a 3-step process as depicted exemplarily in FIG. 13. The cytotoxicity of the ADC is confirmed in a cell viability assay in an initial step. […] In the second step. the MNED of the ATRi was determined. […] In order to obtain a full […] for the combination, the starting concentration of the ADC was lowered compared to the experiment in step 1.

[3] = Xenograft experiment, tolerability (body weight); parameters: species or system H2d Rag2 mice; details: mouse, in vivo
Procedure: The tolerability of the anti-cancer treatment was assessed considering the overall condition of the animal as well as body-weight changes of the mice (FIG. 22).

NCI-N87 xenografts = assay: Xenograft experiment, therapeutic efficacy; details: single agent: αHER2-6 1.0 mg/kg i.v. single dose; ATRi 50 mg/kg per oral once daily 14 d
Procedure: Female H2d Rag2 mice, 6-8 weeks old, were obtained from Taconic Biosciences, LLC. A xenograft was established by harvesting NCI-N87 cells from cell culture, mixing the cells 1:1 with Matrigel and injecting 2.5×10^6 cells subcutaneously into the flank of the mice. The tumor volume was assessed twice weekly by length measurements in two dimensions using calipers. The volume was calculated following eq. 3 where the length L is the longest tumor length and W is the shortest tumor length.
After an initial tumor growth phase, mice were randomized and assigned to treatment groups comprising 10 animals. The initial tumor volume amounted to approximately 100 mm^3 when treatment started. Vehicle treated mice obtained a solution of 0.5% Methocel, 0.25% Tween-20 in water. […] Mice were weighted twice weekly to assess the body-weight during the treatment period. The criteria to terminate the study for single animals were skin ulcerations, tumor length exceeding 15 mm or tumor exceeding 10% of the body weight. In addition, body weight loss was a criterium for termination if body weight loss exceeded 20% accompanied with a haggard appearance, body weight loss exceeded 20% on three successive days or if body weight loss exceeded 25% of the adjusted body weight.

MDA-MB-468 cells = assay: Dose-matrix combination assay (synergy score, Loewe model); assay type: cell-based; details: combination with DUBA; MDA-MB-468, 6 d; S ± SD; cutoff ±1
Procedure: as §1, with “Read out of luminescence was performed on Envision 2104 Multilabel Reader (Perkin Elmer) and data were evaluated using Genedata Screener® version 14.0.6-Standard (Genedata AG).” left out
as §2, §3, §4, §5

HCC-1954 cells [4] = assay: Cytotoxicity (cell viability, CellTiter-Glo, 6 d); assay type: cell-based; details: Homo sapiens, HCC1954, HCC-1954
Procedure: as §1, with “Read out of luminescence was performed on Envision 2104 Multilabel Reader (Perkin Elmer) and data were evaluated using Genedata Screener® version 14.0.6-Standard (Genedata AG).” left out
After 6 d of treatment, CellTiter-Glo luminescent assay was performed and the luminescence was read on Envision Reader. The results were analyzed using GeneData Screener as described before.

[5] = evaluated in vivo; cited from earlier work
[6] = combination with ADC αHER2-2, HCC-1954
[7] = combination with DUBA, HCC-1954, 6 d, S ± SD, cutoff ±1
[8] = combination with DUBA, cell line not given (screen on HCC-1954 or MDA-MB-468)
[9] = ATRi alone, mean ± SD, read-out: Cytotoxicity IC50
[10] = combination with AZD6738, HCC-1954, 6 d

## C[C@@H]1COCCN1c1cc(-c2ccnn2C)c2ccnc(-c3ccn[nH]3)c2n1 [ATRi 1]
MDA-MB-453 cells
  Synergy score S: 13.3±0.3 and 11.4 ± 1.4
NCI-N87 cells
  Synergy score S: 7.1±0.8 and 6.1±0.4
HCC-1954 cells [1]
  Synergy score S: 12.5±1.7 and 12.0±0.6
HCC-1954 cells [2]
  MNED (maximum non-efficacious dose): 40 nM
HCC-1954 cells [2]; HCC-1954, at 40 nM, inhibitor alone (quality control)
  effect on cell viability at MNED: did not reduce cell viability
[3]
  tolerability (conclusion): well tolerated
NCI-N87 xenografts
  tumor response (tumor volume): transient tumor stasis was induced until day 8

## C[C@@H]1COCCN1c1cc(C2(S(C)(=O)=O)CC2)nc(-c2cccc3[nH]ccc23)n1 [AZ20]
HCC-1954 cells [1]; [6]
  Synergy score S: 5.8±0.4
HCC-1954 cells [1]; [7]
  Synergy score S: 5.1±0.5

## C=CCn1c(=O)c2cnc(Nc3ccc(N4CCN(C)CC4)cc3)nc2n1-c1cccc(C(C)(C)O)n1 [AZD1775]
MDA-MB-468 cells
  Synergy score S: 0.1±0.4
HCC-1954 cells [1]; [7]
  Synergy score S: 0.8±0.1

## NC(=O)Nc1cc(-c2cccc(F)c2)sc1C(=O)N[C@H]1CCCNC1 [AZD7762]
MDA-MB-468 cells
  Synergy score S: 2.6+0.2
HCC-1954 cells [1]; [7]
  Synergy score S: 3.6±0.4

## S=C(NCc1ccc2c(c1)OCO2)N1CCN(c2ncnc3c2oc2ccccc23)CC1 [Amuvatinib]
HCC-1954 cells [1]; [8]
  Synergy score S: did not yield a synergy score exceeding the cutoff

## Cc1nc(S(C)(=O)=O)ccc1-c1cc(N2CCOC[C@H]2C)nc2c(-c3ccn[nH]3)nccc12 [BAY73]
HCC-1954 cells [1]; [6]
  Synergy score S: 14.4±1.1
HCC-1954 cells [1]; [7]
  Synergy score S: 12.4±0.8
HCC-1954 cells [4]; [9]
  IC50: 120 ± 30 nM
HCC-1954 cells [2]
  MNED (maximum non-efficacious dose): 14 nM

## C[C@@H]1COCCN1c1cc(C2(S(C)(=O)=O)CC2)c2ccnc(-c3ccn[nH]3)c2n1 [BAY286]
HCC-1954 cells [1]; [6]
  Synergy score S: 10.4±0.2
HCC-1954 cells [1]; [7]
  Synergy score S: 9.5±0.8
HCC-1954 cells [4]; [9]
  IC50: 80 ± 20 nM

## Cc1c(N)nc([C@H](CC(N)=O)NC[C@H](N)C(N)=O)nc1C(=O)N[C@H](C(=O)N[C@H](C)[C@@H](O)[C@H](C)C(=O)NC(C(=O)NCCc1nc(-c2nc(C(=O)NCCCNCCCCN)cs2)cs1)[C@@H](C)O)[C@@H](O[C@@H]1O[C@@H](CO)[C@@H](O)[C@H](O)[C@@H]1O[C@H]1O[C@H](CO)[C@@H](O)[C@H](OC(N)=O)[C@@H]1O)c1cnc[nH]1 (stereo partly shown) [Bleomycin A5]
MDA-MB-468 cells
  Synergy score S: 0.4+1.0
HCC-1954 cells [1]; [7]
  Synergy score S: 1.6±1.0

## COc1c(O)c2c(c3cc(C(=O)N4CCc5c4c(O)c(OC)c4[nH]c(C(=O)N6CC7CC78C6=CC(=O)c6[nH]cc(C)c68)cc54)[nH]c13)CCN2C(N)=O (stereo not shown) [CC-1065]
[5]
  antitumor activity: moderate antitumor activity
  toxicity: hepatic toxicity limited its effectiveness

## COCC(=O)NC/C=C/c1ccc2ncnc(Nc3ccc(Oc4ccc(C)nc4)c(C)c3)c2c1 [CP724714]
MDA-MB-468 cells
  Synergy score S: additive effects
HCC-1954 cells [1]; [7]
  Synergy score S: additive effects

## N#C/C(C(=O)c1ccc(Cl)cc1Cl)=C1/NC(=O)c2ccc(Cl)cc2N1 [Ciliobrevin D]
MDA-MB-468 cells
  Synergy score S: 0.2±0.5
HCC-1954 cells [1]; [7]
  Synergy score S: 1.2+0.6

## COc1cc2cc(c1Cl)N(C)C(=O)C[C@H](OC(=O)[C@H](C)N(C)C(=O)CCS)[C@]1(C)O[C@H]1[C@H](C)[C@@H]1C[C@@](O)(NC(=O)O1)[C@H](OC)/C=C/C=C(\C)C2 [DM1]
HCC-1954 cells [1]
  Synergy score S: 2.8 ± 0.5

## Nc1ccn([C@@H]2O[C@H](CO)[C@@H](O)C2(F)F)c(=O)n1 [Gemcitabine]
MDA-MB-453 cells; combination with AZD6738, MDA-MB-453
  Synergy score S: 1.6±1.2
NCI-N87 cells; combination with AZD6738, NCI-N87
  Synergy score S: 1.1±0.5
HCC-1954 cells [1]; [10]
  Synergy score S: 6.9±0.3

## CCN(CC)CCNc1ccc(CO)c2sc3ccccc3c(=O)c12 [Hycanthone]
HCC-1954 cells [1]; [8]
  Synergy score S: 0.1

## O=c1cc(-c2cccc3c2Sc2ccccc2S3)oc(N2CCOCC2)c1 [KU-55933]
HCC-1954 cells [1]; [7]
  Synergy score S: 2.1±1.2

## Cc1cnc(NC(=O)Nc2cc(Br)c(C)cc2OC[C@@H]2CNCCO2)cn1 [LY2603618]
MDA-MB-468 cells
  Synergy score S: 4.4+1.7
HCC-1954 cells [1]; [7]
  Synergy score S: 4.1+0.3

## Nc1nc(OCc2cc(Br)cs2)c2[nH]cnc2n1 [Lomeguatrib]
MDA-MB-468 cells
  Synergy score S: 2.8±2.3
HCC-1954 cells [1]; [7]
  Synergy score S: 0.1±0.3

## CC[C@H](C)[C@@H]([C@@H](CC(=O)N1CCC[C@H]1[C@H](OC)[C@@H](C)C(=O)N[C@H](C)[C@@H](O)c1ccccc1)OC)N(C)C(=O)[C@@H](NC(=O)[C@@H](NC)C(C)C)C(C)C [MMAE] (H-[NMeV]V[Dil][Dolaproine]-X1)
HCC-1954 cells [1]; [10]
  Synergy score S: 2.2+0.1

## O=c1cc(N2CCOCC2)oc2c(-c3cccc4c3sc3ccccc34)cccc12 [NU7441]
HCC-1954 cells [1]; [8]
  Synergy score S: did not yield a synergy score exceeding the cutoff

## O=C(c1cc(Cc2n[nH]c(=O)c3ccccc23)ccc1F)N1CCN(C(=O)C2CC2)CC1 [Olaparib]
MDA-MB-468 cells
  Synergy score S: 1.1+0.1
HCC-1954 cells [1]; [7]
  Synergy score S: 0.6+0.4

## Nc1nc(NC2CC2)cc(-c2cccc(Cl)c2Cl)n1 [TH588]
MDA-MB-468 cells
  Synergy score S: −0.4+0.3
HCC-1954 cells [1]; [7]
  Synergy score S: −0.2±0.3

## C=CCNC1=C2C[C@@H](C)C[C@H](OC)[C@H](O)[C@@H](C)/C=C(\C)[C@H](OC(N)=O)[C@@H](OC)/C=C\C=C(/C)C(=O)NC(=CC1=O)C2=O [Tanespimycin]
HCC-1954 cells [1]
  Synergy score S: 1.4±0.4

## COc1cc2cc(C(=O)N3C[C@@H](CCl)c4c3cc(O)c3ccccc43)[nH]c2c(OC)c1OC [compound 24]
HCC-1954 cells [1]; [10]
  Synergy score S: 6.1 ± 1.2
HCC-1954 cells [1]; combination with AZD6738, HCC-1954, 6 d, listed as CBI-TMI (24)
  Synergy score S: 6.1±1.2
HCC-1954 cells [4]; duocarmycin variant alone, mean ± SD or mean (individual values), read-out: IC50
  IC50: 24 ± 32 nM

From patent US12616750B2, “Combination therapy utilizing DNA alkylating agents and ATR inhibitors” (Merck Patent GmbH, priority 2018, dated 2026)
